For data set [1], the target named is pcDHFR (Pneumocystis carinii, UniProt P16184). In kind it is biochemical. Particulars: read-out: Km NADPH.
Data set [2] deals with T1, hDHFR (Homo sapiens, UniProt P00374).
T1 sequence (P00374 1-187): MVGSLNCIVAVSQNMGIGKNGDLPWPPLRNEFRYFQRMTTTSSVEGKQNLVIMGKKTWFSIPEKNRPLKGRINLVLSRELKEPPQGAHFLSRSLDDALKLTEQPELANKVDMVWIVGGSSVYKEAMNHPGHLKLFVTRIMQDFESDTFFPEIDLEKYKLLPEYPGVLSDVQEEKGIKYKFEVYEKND
Nature of the data set: Standard DHFR assay, kinetic constants. To be noted: read-out: Km NADPH; wild type hDHFR. It is filed as biochemical.

For data set [3], the target named is T2, hDHFR Q35S (Homo sapiens, UniProt P00374, Q36S).
T2 sequence (P00374 1-187 Q36S): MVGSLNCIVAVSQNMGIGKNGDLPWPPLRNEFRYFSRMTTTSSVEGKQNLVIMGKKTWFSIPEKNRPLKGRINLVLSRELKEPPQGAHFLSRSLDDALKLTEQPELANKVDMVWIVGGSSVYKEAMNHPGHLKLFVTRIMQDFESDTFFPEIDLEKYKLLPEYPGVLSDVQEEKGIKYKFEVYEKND
Description: Standard DHFR assay, kinetic constants. In kind it is biochemical. To be noted: read-out: Km NADPH.

In data set [4] the target is T3, hDHFR N64S (Homo sapiens, UniProt P00374, N65S).
T3 sequence (P00374 1-187 N65S): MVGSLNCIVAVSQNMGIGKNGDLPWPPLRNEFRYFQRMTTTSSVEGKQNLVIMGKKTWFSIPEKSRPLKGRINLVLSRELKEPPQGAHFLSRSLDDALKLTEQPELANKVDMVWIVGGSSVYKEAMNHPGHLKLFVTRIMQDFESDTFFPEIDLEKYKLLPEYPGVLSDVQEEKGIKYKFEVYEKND
Description: Standard DHFR assay, kinetic constants. In kind it is biochemical. To be noted: read-out: Km NADPH.

Data set [5] has as its target T4, hDHFR Q35S/N64S (Homo sapiens, UniProt P00374, N65S/Q36S).
T4 sequence (P00374 1-187 Q36S/N65S): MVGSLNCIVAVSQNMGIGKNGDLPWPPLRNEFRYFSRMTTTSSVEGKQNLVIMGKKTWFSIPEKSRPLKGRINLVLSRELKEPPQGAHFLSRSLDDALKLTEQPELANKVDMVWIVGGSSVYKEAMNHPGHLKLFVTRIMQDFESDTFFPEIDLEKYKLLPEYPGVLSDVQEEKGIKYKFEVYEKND
Nature of the data set: Standard DHFR assay, kinetic constants. It is filed as biochemical. To be noted: read-out: Km NADPH.

Data set [6] concerns the target T5, hDHFR Q35K (Homo sapiens, UniProt P00374, Q36K).
T5 sequence (P00374 1-187 Q36K): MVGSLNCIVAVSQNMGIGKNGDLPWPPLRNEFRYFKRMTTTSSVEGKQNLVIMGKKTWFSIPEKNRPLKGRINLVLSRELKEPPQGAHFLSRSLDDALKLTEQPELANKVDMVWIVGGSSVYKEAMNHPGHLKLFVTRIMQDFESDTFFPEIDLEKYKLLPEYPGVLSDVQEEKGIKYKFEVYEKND
Nature of the data set: Standard DHFR assay, kinetic constants. In kind it is biochemical. To be noted: read-out: Km NADPH.

The target in data set [7] is T6, hDHFR N64F (Homo sapiens, UniProt P00374, N65F).
T6 sequence (P00374 1-187 N65F): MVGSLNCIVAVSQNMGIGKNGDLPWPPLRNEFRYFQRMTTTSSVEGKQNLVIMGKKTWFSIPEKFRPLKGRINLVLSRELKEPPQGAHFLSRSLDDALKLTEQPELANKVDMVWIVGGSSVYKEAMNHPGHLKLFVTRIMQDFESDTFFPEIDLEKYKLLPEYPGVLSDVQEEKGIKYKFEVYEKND
Nature of the data set: Standard DHFR assay, kinetic constants. It is filed as biochemical. Particulars: read-out: Km NADPH.

Data set [8] deals with T7, hDHFR Q35K/N64F (Homo sapiens, UniProt P00374, N65F/Q36K).
T7 sequence (P00374 1-187 Q36K/N65F): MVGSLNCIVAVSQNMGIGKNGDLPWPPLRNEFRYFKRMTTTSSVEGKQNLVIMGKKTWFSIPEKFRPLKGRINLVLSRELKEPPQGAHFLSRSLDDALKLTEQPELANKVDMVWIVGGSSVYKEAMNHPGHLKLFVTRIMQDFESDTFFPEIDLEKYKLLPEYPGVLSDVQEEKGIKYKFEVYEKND
Nature of the data set: Standard DHFR assay, kinetic constants. It is filed as biochemical. To be noted: read-out: Km NADPH.

Data set [9] addresses T8, hDHFR Q35K/N64S (Homo sapiens, UniProt P00374, N65S/Q36K).
T8 sequence (P00374 1-187 Q36K/N65S): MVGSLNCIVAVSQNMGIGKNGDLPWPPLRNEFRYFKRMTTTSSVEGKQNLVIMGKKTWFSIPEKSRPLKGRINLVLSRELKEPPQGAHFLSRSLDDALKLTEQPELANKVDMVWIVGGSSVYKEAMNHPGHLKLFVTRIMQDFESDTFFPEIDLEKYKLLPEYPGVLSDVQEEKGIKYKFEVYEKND
Nature of the data set: Standard DHFR assay, kinetic constants. It is filed as biochemical. Particulars: read-out: Km NADPH.

The target of data set [10] is T9, hDHFR Q35S/N64F (Homo sapiens, UniProt P00374, N65F/Q36S).
T9 sequence (P00374 1-187 Q36S/N65F): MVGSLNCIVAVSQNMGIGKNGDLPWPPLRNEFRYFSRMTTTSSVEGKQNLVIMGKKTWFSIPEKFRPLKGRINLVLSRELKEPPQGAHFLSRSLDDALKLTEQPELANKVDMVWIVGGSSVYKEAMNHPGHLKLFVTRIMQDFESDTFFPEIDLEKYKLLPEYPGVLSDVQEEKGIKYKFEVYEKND
Nature of the data set: Standard DHFR assay, kinetic constants. It is filed as biochemical. To be noted: read-out: Km NADPH.

The target of data set [11] is T10, pjDHFR (Pneumocystis jirovecii, UniProt Q9UUP5).
T10 sequence (Q9UUP5 1-206): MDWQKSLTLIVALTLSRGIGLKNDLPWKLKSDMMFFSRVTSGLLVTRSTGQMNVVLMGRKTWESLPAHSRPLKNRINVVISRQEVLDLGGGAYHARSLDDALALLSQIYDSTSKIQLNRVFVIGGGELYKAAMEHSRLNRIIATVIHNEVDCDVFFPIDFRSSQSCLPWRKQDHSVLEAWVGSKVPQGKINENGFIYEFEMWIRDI
Description: Standard DHFR assay. Particulars: read-out: Km NADPH, substrate at saturating concentration.

Substrate in data set [12]: Nc1nc2c(c(=O)[nH]1)N=C(CNc1ccc(C(=O)N[C@@H](CCC(=O)O)C(=O)O)cc1)CN2
Description: purified protein, by the assay type. To be noted: pH 7.4.

pcDHFR, sequence (P16184 whole entry): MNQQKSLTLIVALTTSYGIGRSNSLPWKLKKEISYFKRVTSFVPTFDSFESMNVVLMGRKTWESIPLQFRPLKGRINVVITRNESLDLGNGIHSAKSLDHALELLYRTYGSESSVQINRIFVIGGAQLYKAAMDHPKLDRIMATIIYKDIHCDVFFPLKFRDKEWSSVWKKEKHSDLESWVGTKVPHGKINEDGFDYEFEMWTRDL

On to `NC(=O)C1=CN([C@@H]2O[C@H](COP(=O)(O)OP(=O)(O)OC[C@H]3O[C@@H](n4cnc5c(N)ncnc54)[C@H](OP(=O)(O)O)[C@@H]3O)[C@@H](O)[C@H]2O)C=CC1` [NADPH], for which the Km came to 16 ± 2 µM in [1]; 4.5 ± 1.2 µM in [2]; 3.8 ± 1.4 µM in [3]; 6.3 µM in data set [4]; 5.3 ± 1.5 µM in data set [5]; 12.5 µM in [6]. In addition, the Km amounted to 7.5 ± 3.1 µM in data set [7]; 5.7 ± 1.1 µM in [8]; 6.6 ± 1.8 µM in data set [9]; 5.6 ± 0.5 µM in [10]; 19 ± 1 µM in data set [11].

B1: pjDHFR (Pneumocystis jirovecii) (protein)
chain: MDWQKSLTLIVALTLSRGIGLKNDLPWKLKSDMMFFSRVTSGLLVTRSTGQMNVVLMGRKTWESLPAHSRPLKNRINVVISRQEVLDLGGGAYHARSLDDALALLSQIYDSTSKIQLNRVFVIGGGELYKAAMEHSRLNRIIATVIHNEVDCDVFFPIDFRSSQSCLPWRKQDHSVLEAWVGSKVPQGKINENGFIYEFEMWIRDI
For B1, the Km in data set [12] (other: pjDHFR, cofactor at saturating concentration) is reported as 2.2 ± 0.2^1 (n=13) μM.

B2: hDHFR Q35K/N64S (Homo sapiens; N65S/Q36K) (protein)
chain: MVGSLNCIVAVSQNMGIGKNGDLPWPPLRNEFRYFKRMTTTSSVEGKQNLVIMGKKTWFSIPEKSRPLKGRINLVLSRELKEPPQGAHFLSRSLDDALKLTEQPELANKVDMVWIVGGSSVYKEAMNHPGHLKLFVTRIMQDFESDTFFPEIDLEKYKLLPEYPGVLSDVQEEKGIKYKFEVYEKND
Regarding B2, in [12] (other: hDHFR Q35K/N64S, 37.0 °C), the Km is reported as 0.7 ± 0.2 (n=6) μM.

B3: hDHFR Q35S (Homo sapiens; Q36S) (protein)
chain: MVGSLNCIVAVSQNMGIGKNGDLPWPPLRNEFRYFSRMTTTSSVEGKQNLVIMGKKTWFSIPEKNRPLKGRINLVLSRELKEPPQGAHFLSRSLDDALKLTEQPELANKVDMVWIVGGSSVYKEAMNHPGHLKLFVTRIMQDFESDTFFPEIDLEKYKLLPEYPGVLSDVQEEKGIKYKFEVYEKND
Regarding B3, the Km in [12] (other: hDHFR Q35S, 37.0 °C) is recorded as 0.7 ± 0.2 (n=4) μM.

B4: hDHFR N64S (Homo sapiens; N65S) (protein)
chain: MVGSLNCIVAVSQNMGIGKNGDLPWPPLRNEFRYFQRMTTTSSVEGKQNLVIMGKKTWFSIPEKSRPLKGRINLVLSRELKEPPQGAHFLSRSLDDALKLTEQPELANKVDMVWIVGGSSVYKEAMNHPGHLKLFVTRIMQDFESDTFFPEIDLEKYKLLPEYPGVLSDVQEEKGIKYKFEVYEKND
As for B4, the Km in [12] (other: hDHFR N64S, 37.0 °C) was 0.9 ± 0.3 (n=3) μM.

B5: hDHFR (Homo sapiens) (protein)
chain: MVGSLNCIVAVSQNMGIGKNGDLPWPPLRNEFRYFQRMTTTSSVEGKQNLVIMGKKTWFSIPEKNRPLKGRINLVLSRELKEPPQGAHFLSRSLDDALKLTEQPELANKVDMVWIVGGSSVYKEAMNHPGHLKLFVTRIMQDFESDTFFPEIDLEKYKLLPEYPGVLSDVQEEKGIKYKFEVYEKND
For B5, in [12] (other: wild type hDHFR, 37.0 °C), the Km is recorded as 0.7 ± 0.1 (n=8) μM.

B6: hDHFR Q35S/N64F (Homo sapiens; N65F/Q36S) (protein)
chain: MVGSLNCIVAVSQNMGIGKNGDLPWPPLRNEFRYFSRMTTTSSVEGKQNLVIMGKKTWFSIPEKFRPLKGRINLVLSRELKEPPQGAHFLSRSLDDALKLTEQPELANKVDMVWIVGGSSVYKEAMNHPGHLKLFVTRIMQDFESDTFFPEIDLEKYKLLPEYPGVLSDVQEEKGIKYKFEVYEKND
For the molecule B6, in [12] (other: hDHFR Q35S/N64F, 37.0 °C), the Km is given as 0.7 ± 0.2 (n=5) μM.

The record behind these values is article PMC3166973 (Journal of structural biology, 2011).
